One series deals with murine BM-MDSC. Description: In vitro suppression assay with murine BM-MDSC. The format is cell-based, mouse. Here is the method: Mouse BM-MDSC were generated after culturing BM precursors with GM-CSF and G-CSF (20 ng/ml each) for 4 days. In vitro generated MDSC were treated with either LLC tumor explant supernatants (TES, since day 0) or Thaps (200 nM, for the last 24 hours of culture). Human BM-MDSC were developed after culturing BM or peripheral blood precursors from healthy donors with GM-CSF and IL-6 (10 ng/ml each) for a period of 6 days (Thevenot et al., 2014). To induce UPR activation, MDSC were treated with either supernatants from renal cell carcinoma cells 786-0 (hTES) for 6 days (Rodriguez et al., 2009) or Thaps during the last 24 hours before collection (200 nM). In some experiments, MDSC were pre-incubated for 3 hours with Resveratrol (100 μM, Sigma-Aldrich), D,L-Sulphoraphane (20 μM), AMG-44 (5 μM), or TUDCA (500 nM) before treating with Thaps.
Murine BM-MDSC (ratio 1:1/8) or tumor-MDSC (ratio 1:1/4) were co-cultured with negatively selected CD3^+ T cells in a 96 well plate bound α-CD3 and α-CD28 (1 μg/ml each, eBioscience) for 3 days. T cell proliferation was assessed with Carboxyfluorescein succinimidyl ester (CFSE) or Cell-trace violet (Invitrogen) dye dilution detected by flow cytometry. For human studies, MDSC were co-cultured with enriched CD3^+ T cells activated with soluble α-CD3 (1 μg/ml, clone OKT3) and α-CD28 (0.5 μg/ml, clone L293) for 3 days in a 96 well plate bound with goat anti-mouse IgG (10 μg/ml). Results are expressed as percentage of proliferating T cells, determined by the dilution of fluorescence compared with non-stimulated T cells.

In a further series the test system is CD8+ TILs. Put plainly: Flow cytometry of tumor-infiltrating CD8+ T cells from treated mice. The format is in vivo. The procedure:
All analysis was performed using FlowJo version 11 software.

Series [1] in a line: Blood glucose and pancreatic islets in B16-bearing mice. The format is in vivo. An excerpt: Hematoxylin and Eosin (H&E) stained slides were scanned in an Aperio AT2 whole slide scanner (Leica Biosystems Inc.) equipped with a 20×0.7NA objective lens Images were created at 0.5 micron per pixel resolution and imported into Definiens Tissue Studio software v4.7 (Definiens AG) for analysis. Islets were found using a semi-automated segmentation process. First an automatic segmentation was applied to the image to create contour lines around objects within the image. Objects that contained islets were classified as such and remaining objects were classified as non-islet tissue. Next, adjacent objects of the same classification were merged together to clean up the segmentation. Segmented images were analyzed to provide the total area of islets Immunofluorescence for mouse insulin in pancreas tissue sections was performed as we described (Sultan et al., 2017). Labeled samples were scanned with a Zeiss Imager Z2 Upright FL microscope with a 10× objective lens using the tile scan function. Images were created at a
0.65 micron per pixel resolution and imported into the Definiens Tissue Studio software v4.7 (Definiens AG) for islet detection and analysis. Islets were detected using a semi-automated segmentation process. First, an automatic segmentation was applied to the image to detect the tissue. Then, the software was trained to detect islet vs. non-islet tissue within the image. In order to remove false detected islets caused by background staining, detected islets larger than 150,000 square microns and less than 600 square microns were reclassified to non-islet tissue. Segmented images were then analyzed to provide the fluorescent intensity of islets and total tissue area.

The subject of series [2] is FSHR+-ID8-Defb29/Vegfa ovarian tumors. Description: ER stress-targeting therapy combined with FSH-CER T cells in ovarian tumor-bearing mice. The format is in vivo. The settings on record: MKC8866 i.p. 300 mg/kg or AMG-44 i.p. 12 mg/kg daily for one week; FSH-CER T cells days 7 and 14. Here is the method:
The role of the PERK-Chop in the expansion of tumor TRM cells using conditional T cell Chop-null mice was evaluated. In agreement with the inhibitory effect of Chop in TRM development, higher frequency of TRM cells was detected in tumors from T cell-Chop^KO mice compared to controls (FIG. 23A). Next, we tested the effect of the inhibition of PERK (AMG-44) and IRE 1α (MKC8866) during the expansion of IL-2-supplemented human FSH-CER T cells. […] Also, we evaluated the therapeutic effect of the combination of ER stress-targeting therapy and FSH-CER. […]
Activation of the UPR in cancer cells mediates adaptation processes in the TME, whereas UPR priming in tumor-myeloid cells promotes their immunoregulatory activity. […] As main readouts of therapeutic efficacy, we will monitor tumor burden, overall survival, and tumor CER-T cell infiltration, persistence, and cytotoxic capacity (Exp. C.2.1.1). […] Additionally, we will sort DCs and MDSC from tumor sites and lymphoid organs to quantify the expression of ER stress gene markers, their ability to impair T cell proliferation and IFNγ production, and the levels of the UPR-related immunoinhibitory factors IL-6, PGE2, Cox-2, mPGES-1, and Arginase I. All required methods are established by our groups. […]

SMILES strings stand for the structures.

For `Cc1ccc2cc(-c3c(C)ccc(C(=O)c4c(-c5ccccc5)n(C)n(-c5ccccc5)c4=O)c3N)ccc2n1` [AMG-44], the “ability of Thaps-treated BM-MDSC to impair T cell proliferation” value in the series with murine BM-MDSC (BM-MDSC (1:1/8) exposed 3 hours to 5 μM AMG-44) is “overcame the ability of Thaps-treated BM-MDSC to impair T cell proliferation”. In addition, the MDSC-baseline activity result in the series with murine BM-MDSC (control BM-MDSC exposed 3 hours to 5 μM AMG-44) is given as “without affecting MDSC-baseline activity”. Also, the “tumor-infiltrating CD8+ T cells expressing IFNγ” value in the series with CD8+ TILs (B16-bearing mice, AMG-44 12 mg/kg) is “induced expansion”. Further, the “frequency of IFNγ-producing CD8+ T cells in tumors” value with CD8+ TILs (B16, GSK2606414 25 mg/kg or AMG-44 12 mg/kg, 17 days post-tumor injection) is on record as “amplified the frequency of IFNγ-producing CD8^+ T cells in tumors”. Moreover, in series [1] (AMG-44 12 and 24 mg/kg), the blood glucose levels entry is listed as “without alterations”, the “insulin expression in the pancreatic islets” value is listed as “without alterations” and the “size of the pancreatic islets” value is reported as “without alterations”. In addition, the “glucose levels in the serum” value in series [1] (B16-bearing mice treated for a week, GSK2606414 25 mg/kg or AMG-44 12 mg/kg, day 17) was “failed to show alterations in glucose levels”. Also, in series [2], the “survival of hosts receiving FSH-CER T cells plus inhibitor” value is “Prolonged survival”.

(Values after patent US20230107770A1, “METHOD OF ENHANCING IMMUNOTHERAPY USING ER STRESS PATHWAY INHIBITORS” (H. LEE MOFFITT CANCER CENTER AND RESEARCH INSTITUTE, INC., priority 2020, published 2023).)
